Laboratory results taken from the NIST ThermoML archive (doi:10.1021/je500314x).

Conditions: gamma densitometer

C1CCCCC1 [cyclohexane]
5000 kPa, Fluid (supercritical or subcritical phases)
Conditions	mass density [kg/m3]
287 K	788.3
305.9 K	763.7
324.9 K	752.1
351 K	731.8
375 K	704.3
394.8 K	686.7
416.6 K	666.5
431.9 K	646.2
452.4 K	620.2
475.1 K	595.5
488.4 K	573.5
504.4 K	546.3
513.9 K	527.5
522.6 K	510.3
531.9 K	487
543 K	454.5
553.2 K	426.2
561.7 K	365.6
572.1 K	259.5
584.2 K	187
592.5 K	167
603.6 K	149.3
618.8 K	133
635 K	118.3
654.2 K	109.8
672.3 K	96.5
687.5 K	92
698.5 K	89.9

N#N [nitrogen]
mass density [kg/m3], Gas
Conditions	293.2 K	473.2 K
100 kPa	1.15	0.68
600 kPa	7.36	3.79
1000 kPa	–	8
1100 kPa	11.22	–
1600 kPa	17.77	11.8
2100 kPa	23.64	14.69
2600 kPa	27.88	–
3100 kPa	33.96	21.05
3600 kPa	40.54	–
4000 kPa	–	27.65
4100 kPa	46.43	–
4600 kPa	53.49	–
5100 kPa	58.28	–
5600 kPa	62.2	–
6000 kPa	69.11	–
